Assay results: the supplement of paper PMC10307832

Experiments:
Assay in all cases: relative viability (nuclei count vs DMSO), 5 days (fraction); higher = more cells survive
RO-3306 = compound: C1=CC2=C(C=CC(=C2)C=C3C(=O)NC(=NCC4=CC=CS4)S3)N=C1 [RO-3306]
Summary of the method: (§1)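 Cells of lung cancer lines were placed in 1536-well plates and kept overnight at 37 °C. Pinning then delivered five library-drug doses (not always all listed), spaced by √10, onto plates anchored with vehicle, and the cells were left 5 days without changing medium. One step fixed, permeabilised and stained them with Hoechst, and MetaXpress counted nuclei in 4× images. Viability, as a median over plates, is treated-well nuclei divided by vehicle-well nuclei, with acceptance only at control CV below 25% and at least one doubling.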

Foretinib = compound: COc1cc2c(Oc3ccc(NC(=O)C4(C(=O)Nc5ccc(F)cc5)CC4)cc3F)ccnc2cc1OCCCN1CCOCC1 [Foretinib] (anchor plate); settings: 0.25 µM
Summary of the method: as §1

[1] = compound: O=S(=O)(c1ccccc1)N(CC(F)(F)F)c1ccc(C(O)(C(F)(F)F)C(F)(F)F)cc1
Summary of the method: as §1

RO-3306 + AZD7762 = compound: C1=CC2=C(C=CC(=C2)C=C3C(=O)NC(=NCC4=CC=CS4)S3)N=C1 [RO-3306] + NC(=O)Nc1cc(-c2cccc(F)c2)sc1C(=O)N[C@H]1CCCNC1 [AZD7762] (partner 0.2 µM)
Summary of the method: (§2)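 Medians of duplicate plates are given as relative viability. That measure is the nuclei count in treated wells divided by the count in vehicle wells. Counts were taken on 4× images of lung cancer cell lines in 1536-well plates, 5 days after pin-tool dosing the day after seeding with one drug alone or a fixed anchor-drug dose plus five library-drug doses (not always all listed) in √10 steps.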

[2] = compound: O=S(=O)(c1ccccc1)N(CC(F)(F)F)c1ccc(C(O)(C(F)(F)F)C(F)(F)F)cc1 + Cc1cc(Nc2cc(N3CCN(C)CC3)nc(Sc3ccc(NC(=O)C4CC4)cc3)n2)n[nH]1 [Tozasertib] (partner 0.1 µM)
Summary of the method: as §2

[3] = compound: O=S(=O)(c1ccccc1)N(CC(F)(F)F)c1ccc(C(O)(C(F)(F)F)C(F)(F)F)cc1 + O=C(c1cc(Cc2n[nH]c(=O)c3ccccc23)ccc1F)N1CCN(C(=O)C2CC2)CC1 [Olaparib] (partner 8 µM)
Summary of the method: as §2

Row | Cell Line | relative viability (RO-3306; 0.01 µM) | relative viability (RO-3306; 0.03162 µM) | relative viability (RO-3306; 0.1 µM) | relative viability (RO-3306; 0.3162 µM) | relative viability (RO-3306; 1 µM) | relative viability (Foretinib) | relative viability ([1]; 0.8 µM) | relative viability ([1]; 2.53 µM) | relative viability ([1]; 8 µM) | relative viability (RO-3306 + AZD7762; first compound 0.01 µM) | relative viability (RO-3306 + AZD7762; first compound 0.03162 µM) | relative viability (RO-3306 + AZD7762; first compound 0.1 µM) | relative viability (RO-3306 + AZD7762; first compound 0.3162 µM) | relative viability (RO-3306 + AZD7762; first compound 1 µM) | relative viability ([2]; first compound 0.8 µM) | relative viability ([2]; first compound 2.53 µM) | relative viability ([2]; first compound 8 µM) | relative viability ([3]; first compound 0.8 µM) | relative viability ([3]; first compound 2.53 µM) | relative viability ([3]; first compound 8 µM)
1 | ChaGo-K-1 | 1.03 | 0.933 | 1.01 | 1.04 | 0.699 | 0.921 | 1.14 | 0.998 | 1.06 | 1.08 | 0.694 | 0.84 | 0.945 | 0.769 | 0.225 | 0.209 | 0.235 | 0.466 | 0.427 | 0.388
2 | NCI-H2023 | 1.18 | 0.803 | 0.901 | 1 | 0.858 | 0.893 | 1.11 | 0.885 | 0.766 | – | – | – | – | – | 0.335 | 0.289 | 0.249 | 0.601 | 0.48 | 0.441
3 | NCI-H1299 | 1.06 | 1 | 1.03 | 1.04 | 1.09 | 1.06 | 1.01 | 1.02 | 0.952 | – | – | – | – | – | – | – | – | 0.961 | 0.949 | 0.96
4 | BEN | 0.903 | 0.888 | 0.894 | 1.03 | 0.976 | 0.668 | 0.991 | 0.895 | 0.87 | 0.558 | 0.676 | 0.649 | 0.742 | 0.768 | 0.615 | 0.549 | 0.508 | 0.889 | 0.875 | 0.876
5 | NCI-H1623 | 0.99 | 0.909 | 0.958 | 1.08 | 0.844 | 0.899 | 0.928 | 0.836 | 0.856 | – | – | – | – | – | 0.399 | 0.396 | 0.366 | – | – | –
6 | NCI-H661 | 0.995 | 0.951 | 0.978 | 0.963 | 1.06 | 0.971 | 1.04 | 0.982 | 0.971 | – | – | – | – | – | 0.333 | 0.34 | 0.361 | 0.774 | 0.779 | 0.768
7 | SW 1573 | 1.02 | 0.781 | 0.945 | 1.05 | 0.979 | 0.879 | 1.17 | 1.01 | 0.884 | – | – | – | – | – | 0.182 | 0.17 | 0.215 | 0.527 | 0.43 | 0.514
8 | IA-LM | 1.05 | 0.683 | 0.89 | 1.05 | 0.869 | 1.13 | 0.924 | 0.829 | 0.756 | – | – | – | – | – | – | – | – | 0.94 | 0.651 | 0.681
9 | NCI-H1650 | 0.885 | 0.729 | 0.795 | 0.881 | 0.728 | 1.22 | 0.929 | 0.897 | 0.936 | – | – | – | – | – | 0.348 | 0.404 | 0.346 | 0.792 | 0.678 | 0.743
10 | COR-L23 | 1.03 | 0.892 | 1.04 | 1.04 | 1.14 | 0.949 | 1.13 | 0.921 | 0.858 | – | – | – | – | – | 0.159 | 0.152 | 0.164 | 0.357 | 0.35 | 0.34
11 | NCI-H1792 | 0.813 | – | 0.824 | 0.908 | 0.782 | – | 0.79 | 0.724 | 0.858 | 0.76 | – | 0.657 | 0.709 | 0.661 | – | – | – | 0.402 | 0.274 | 0.189
12 | COR-L 105 | 0.859 | 0.784 | 0.798 | 0.906 | 0.948 | 1.07 | 0.947 | 0.786 | 0.918 | – | – | – | – | – | 0.337 | 0.342 | 0.435 | 0.69 | 0.602 | 0.546
13 | EBC-1 | 1.04 | 0.807 | 1.01 | 1.14 | 1.01 | 0.108 | 0.934 | 0.769 | 0.721 | – | – | – | – | – | – | – | – | 0.692 | 0.584 | 0.597
14 | Calu-6 | 1.12 | 0.893 | 1.02 | 1 | 1.06 | 0.861 | 0.982 | 0.876 | 0.858 | – | – | – | – | – | – | – | – | 0.562 | 0.58 | 0.571
15 | SK-MES-1 | 1.07 | 0.963 | 1.02 | 1.08 | 1.08 | 0.965 | 1.11 | 0.973 | 0.936 | – | – | – | – | – | 1.11 | 1.05 | 0.962 | 0.743 | 0.728 | 0.579
16 | NCI-H520 | 1.05 | 0.834 | 1.01 | 1.04 | 0.957 | 0.745 | 1.1 | 0.963 | 0.982 | – | – | – | – | – | 0.435 | 0.463 | 0.476 | 0.333 | 0.346 | 0.32
17 | NCI-H2009 | 1.03 | 0.955 | 0.983 | 1.02 | 1 | 1.22 | 0.977 | 0.862 | 0.891 | – | – | – | – | – | 0.749 | 0.57 | 0.679 | 0.663 | 0.685 | 0.648
18 | A549 | 1.13 | 0.811 | 0.994 | 1 | 1.05 | 0.951 | 1.07 | 0.914 | 0.886 | – | – | – | – | – | – | – | – | 0.299 | 0.278 | 0.204
19 | NCI-H1648 | 0.863 | – | 0.877 | 0.858 | 1.01 | – | 0.793 | 0.58 | 0.518 | 0.809 | – | 0.697 | 0.643 | 0.625 | 0.408 | 0.293 | 0.339 | 0.835 | 0.542 | 0.602
20 | NCI-H1703 | 1.17 | 0.837 | 0.969 | 0.751 | 0.906 | 0.347 | 0.846 | 0.776 | 0.696 | 0.137 | 0.102 | 0.125 | – | 0.124 | – | – | – | 0.53 | 0.387 | 0.446
